Tests used:
Assay type in all cases: cell-based
[1] = tested on: ATCC9027 strain (Pseudomonas aeruginosa); test: Broth microdilution, antibacterial activity of the compound used alone
Description: (§1) The broth microdilution method was used to test the antibacterial effects of the compounds of the present invention against various Gram-negative bacterial strains when used alone.

[2] = tested on: ATCC13883 strain (Klebsiella pneumoniae); test: as above
Description: as §1

[3] = tested on: ATCC19606 strain (Acinetobacter baumannii); test: as above
Description: as §1

[4] = tested on: ATCC25922 strain (Escherichia coli); test: as above
Description: as §1

[5] = tested on: ATCC9027 strain (Pseudomonas aeruginosa); test: Checkerboard antibacterial synergistic activity test with polymyxin E (FIC); set-up: key: FIC≤0.5 synergy; 0.5–1 additive; 1–2 indifferent; ≥2 antagonism; details: combined with polymyxin E
How it was run: (§2)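 FIC values come from a microdilution checkerboard crossing polymyxin E against the test compound in MH medium, with uninoculated blanks included. Incubation lasts 16 h at 37° C. Scoring: synergy at FIC ≤0.5, additivity between 0.5 and 1, indifference between 1 and 2, antagonism at 2 or above.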

[6] = tested on: ATCC13883 strain (Klebsiella pneumoniae); test: as above; set-up: key: FIC≤0.5 synergy; 0.5–1 additive; 1–2 indifferent; ≥2 antagonism; details: combined with polymyxin E
How it was run: as §2

[7] = tested on: ATCC19606 strain (Acinetobacter baumannii); test: as above; set-up: key: FIC≤0.5 synergy; 0.5–1 additive; 1–2 indifferent; ≥2 antagonism; details: combined with polymyxin E
How it was run: as §2

[8] = tested on: ATCC25922 strain (Escherichia coli); test: as above; set-up: key: FIC≤0.5 synergy; 0.5–1 additive; 1–2 indifferent; ≥2 antagonism; details: combined with polymyxin E
How it was run: as §2

SMILES	Antibacterial activity of the compound of Formula I, ATCC9027 [1] [µg/mL]	Antibacterial activity of the compound of Formula I, ATCC13883 [2] [µg/mL]	Antibacterial activity of the compound of Formula I, ATCC19606 [3] [µg/mL]	Antibacterial activity of the compound of Formula I, ATCC25922 [4] [µg/mL]	Synergistic activity (FIC value) ATCC9027 [5]	Synergistic activity (FIC value) ATCC13883 [6]	Synergistic activity (FIC value) ATCC19606 [7]	Synergistic activity (FIC value) ATCC25922 [8]
CSc1cc2cc(Cl)cc(Cl)n2c1-c1nc(N=C(N)N)sc1Cl [Compound I-130]	256	256	256	256	0.28	0.16	0.03	0.18
Cc1ccc(Oc2cccc(-c3coc(N=C(N)N)n3)c2)c(C)c1 [Compound I-92]	256	256	256	256	0.04	0.19	0.38	0.04
CSc1ccccc1-c1csc(N=C(N)N)n1 [Compound I-26]	256	256	256	256	1.25	1.25	0.5	0.63
COc1ccc(Oc2ccccc2-c2csc(N=C(N)N)n2)c(C)c1 [Compound I-83]	256	256	256	256	0.04	0.09	0.63	0.27
CC(C)c1cccc(-c2c[nH]c(N=C(N)N)n2)c1 [Compound I-16]	256	256	256	256	0.63	0.25	0.3	0.5
Cc1ccc(Sc2ccccc2-c2coc(N=C(N)N)n2)c(C)c1 [Compound I-108]	256	256	256	256	0.28	0.16	0.03	0.18
NC(N)=Nc1nc(-c2ccccc2OCc2ccccc2)cs1 [Compound I-7]	256	256	256	256	0.75	0.51	0.16	0.51

Reference: patent US20260250257A1, “ANTIBACTERIAL AND SYNERGISTIC ACTIVE COMPOUND AND USE THEREOF” (EAST CHINA UNIVERSITY OF SCIENCE AND TECHNOLOGY, priority 2023, published 2026)
